In publication PMC8034185, “The rumen eukaryotome is a source of novel antimicrobial peptides with therapeutic potential” (BMC Microbiology, 2021):
Ends that are not written are not given here.

Key:
human red blood cells = assay: Haemolytic activity; format: cell-based; conditions: human RBC, CTAB control
Description: (§1) Fresh human red blood cells (RBC) (Cambridge Bioscience, UK) and defibrinated sheep erythrocytes (Oxoid Ltd. Hampshire, UK) were washed 3 times with PBS, centrifuged for 5 min at 500 rpm between each wash and resuspended to 4% (v/v) in PBS. […] The percentage of haemolysis was calculated according to the equation: (A450 peptide solution − A450 PBS)/ (A450 0.1% Triton X-100 − A450 PBS) × 100. The therapeutic index (T.I.) was calculated as the ratio of the minimum haemolytic concentration ((MHC)- causing 5% haemolysis to human erythrocytes) to the minimum inhibitory concentration (MICGM+) [46]. The MICGM+ was the minimum inhibitory concentration of the peptide against Gram-positive bacterial strains after the geometric mean was calculated.

[1] = tested on: drug resistant A. baumannii isolates; format: cell-based, Acinetobacter baumannii
Description: MICs against a range of clinically important Gram-positive and Gram-negative bacteria strains including methicillin-sensitive Staphylococcus aureus (MSSA) RN4220 epidemic methicillin-resistant S. aureus-15 (EMRSA-15), methicillin-resistant S. aureus USA300 (MRSA USA300), Bacillus cereus, Enterococcus faecalis JH2–2, Escherichia coli K12, Salmonella enterica serovar Typhimurium SL1344, P. aeruginosa PAO1, and hospital isolates of Acinetobacter baummannii were determined in quadruplicate by a modified microdilution broth method [64] with a final bacterial inoculum concentration of 5 × 10^5 CFU/mL utilised as the test organisms. Cation-adjusted Mueller Hinton (MH) broth was innoclated overnight with a single colony of the tested microorganisms, subsequently grown for 16–24 h with shaking at 225 rpm, and further diluted in the same broth to a final concentration of 5 × 10^5 CFU/mL. The bacterial suspension was added to sterile U-bottomed 96-well plates, and the peptides and control antibiotics to be tested were dissolved in sterile distilled water and serially diluted in the wells. The MICs were recorded as the lowest peptide concentration that inhibited growth after incubation for 18 h [65]. […]

sheep erythrocytes = assay: Haemolytic activity; format: cell-based; conditions: for haemolysis of sheep erythrocytes: 1 h; for Haemolytic activity (Minus PBS/average positive*100): sheep erythrocytes
Description: as §1

S. aureus strains = format: cell-based, Staphylococcus aureus

| Molecule | Haemolytic (human red blood cells) | MIC against drug resistant A. baumannii isolates [1] | haemolysis of sheep erythrocytes (sheep erythrocytes; 16 μg/mL) | haemolysis of sheep erythrocytes (sheep erythrocytes; 24 μg/mL) | Haemolytic activity (Minus PBS/average positive*100) (sheep erythrocytes; 1x MIC, mean) | Haemolytic activity (Minus PBS/average positive*100) (sheep erythrocytes; 1x MIC, replicate 1) | Haemolytic activity (Minus PBS/average positive*100) (sheep erythrocytes; 1x MIC, replicate 2) | Haemolytic activity (Minus PBS/average positive*100) (sheep erythrocytes; 1x MIC, replicate 3) | Haemolytic activity (Minus PBS/average positive*100) (sheep erythrocytes; 1x MIC, replicate 4) | Haemolytic activity (Minus PBS/average positive*100) (sheep erythrocytes; 2x MIC, mean) | Haemolytic activity (Minus PBS/average positive*100) (sheep erythrocytes; 2x MIC, replicate 1) | Haemolytic activity (Minus PBS/average positive*100) (sheep erythrocytes; 2x MIC, replicate 2) | Haemolytic activity (Minus PBS/average positive*100) (sheep erythrocytes; 2x MIC, replicate 3) | Haemolytic activity (Minus PBS/average positive*100) (sheep erythrocytes; 2x MIC, replicate 4) | Haemolytic activity (Minus PBS/average positive*100) (sheep erythrocytes; 3x MIC, mean) | Haemolytic activity (Minus PBS/average positive*100) (sheep erythrocytes; 3x MIC, replicate 1) | Haemolytic activity (Minus PBS/average positive*100) (sheep erythrocytes; 3x MIC, replicate 2) | Haemolytic activity (Minus PBS/average positive*100) (sheep erythrocytes; 3x MIC, replicate 3) | Haemolytic activity (Minus PBS/average positive*100) (sheep erythrocytes; 3x MIC, replicate 4) | MIC against S. aureus strains (S. aureus strains) |
| --- | --- | --- | --- | --- | --- | --- | --- | --- | --- | --- | --- | --- | --- | --- | --- | --- | --- | --- | --- | --- |
| CCCCCCCCCCCCCCCC[N+](C)(C)C.[Br-] [CTAB] | 100 |  |  |  |  |  |  |  |  |  |  |  |  |  |  |  |  |  |  |  |
| GIVAWFWRLAR [Lubelisin] |  | 128 µg/mL | ~20% | ~30% | 12.8836 | 12.4097 | 12.5903 | 11.8682 | 14.6661 | 18.8177 | 17.1029 | 22.6986 | 19.9007 | 15.5686 | 33.7319 | 34.2509 | 33.1679 | 33.7094 | 33.7996 | 8 µg/mL |
